Assay results reported in BindingDB's records for doi:10.1016/s0960-894x(03)00461-x (Eli Lilly, 2003).

Legend:
Experiment in all cases: CDK Kinase Inhibition Assay
Conditions in all cases: 25 °C
[1] = molecular target: Cyclin-dependent kinase 2/G1/S-specific cyclin-E1 (Homo sapiens, UniProt P24941)
[2] = molecular target: cAMP-dependent protein kinase catalytic subunit alpha (Bos taurus, UniProt P00517)
[3] = molecular target: Calcium/calmodulin-dependent protein kinase type II subunit alpha (Rattus norvegicus, UniProt P11275)
Calcium/calmodulin-dependent protein kinase type II subunit alpha, sequence (P11275 whole entry): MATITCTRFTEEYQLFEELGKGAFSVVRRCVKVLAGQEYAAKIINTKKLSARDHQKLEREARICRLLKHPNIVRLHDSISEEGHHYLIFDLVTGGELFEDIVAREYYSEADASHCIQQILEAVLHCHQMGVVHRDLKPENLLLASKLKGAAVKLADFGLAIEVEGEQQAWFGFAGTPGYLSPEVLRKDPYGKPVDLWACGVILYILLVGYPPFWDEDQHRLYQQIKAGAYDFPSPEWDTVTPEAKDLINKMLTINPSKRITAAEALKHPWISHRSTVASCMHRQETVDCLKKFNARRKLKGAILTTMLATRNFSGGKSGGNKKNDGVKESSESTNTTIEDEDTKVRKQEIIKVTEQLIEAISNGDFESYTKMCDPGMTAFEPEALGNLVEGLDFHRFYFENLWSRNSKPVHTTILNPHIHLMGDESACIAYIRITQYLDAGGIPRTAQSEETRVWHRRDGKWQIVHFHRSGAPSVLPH

SMILES | IC50 [1] [µM] | IC50 [2] [µM] | IC50 [3] [µM]
COc1ccc2c3c4c(c5c(ccc6ccn(C)c65)c3n(CCCN3CCC(O)CC3)c2c1)C(=O)NC4=O [3-[3-(4-hydroxypiperidin-1-yl)propyl]-6-methoxy-18-methyl-3,13,18-triazahexacyclo[14.7.0.0^{2,10}.0^{4,9}.0^{11,15}.0^{17,21}]tricosa-1(16),2(10),4(9),5,7,11(15),17(21),19,22-nonaene-12,14-dione] | 2.1 | – | –
CCc1ccc2c(c1)[nH]c1c3ccc4ccn(C)c4c3c3c(c21)C(=O)NC3=O [6-ethyl-18-methyl-3,13,18-triazahexacyclo[14.7.0.0^{2,10}.0^{4,9}.0^{11,15}.0^{17,21}]tricosa-1(16),2(10),4(9),5,7,11(15),17(21),19,22-nonaene-12,14-dione] | 0.36 | > 20 | –
COc1ccc2c3c4c(c5c(ccc6ccn(C)c65)c3n(CCN3CCCCC3)c2c1)C(=O)NC4=O [6-methoxy-18-methyl-3-[2-(piperidin-1-yl)ethyl]-3,13,18-triazahexacyclo[14.7.0.0^{2,10}.0^{4,9}.0^{11,15}.0^{17,21}]tricosa-1(16),2(10),4(9),5,7,11(15),17(21),19,22-nonaene-12,14-dione] | – | > 20 | > 20
COc1ccc2c3c4c(c5c(ccc6ccn(C)c65)c3n(CCCN3CCOCC3)c2c1)C(=O)NC4=O [6-methoxy-18-methyl-3-[3-(morpholin-4-yl)propyl]-3,13,18-triazahexacyclo[14.7.0.0^{2,10}.0^{4,9}.0^{11,15}.0^{17,21}]tricosa-1(16),2(10),4(9),5,7,11(15),17(21),19,22-nonaene-12,14-dione] | – | > 20 | > 20
COc1ccc2c3c4c(c5c(ccc6ccn(C)c65)c3n(CCCN3CCSCC3)c2c1)C(=O)NC4=O [6-methoxy-18-methyl-3-[3-(thiomorpholin-4-yl)propyl]-3,13,18-triazahexacyclo[14.7.0.0^{2,10}.0^{4,9}.0^{11,15}.0^{17,21}]tricosa-1(16),2(10),4(9),5,7,11(15),17(21),19,22-nonaene-12,14-dione] | – | > 20 | > 20
COC(=O)C1CCN(CCc2cccc3c2[nH]c2c4ccc5ccn(C)c5c4c4c(c32)C(=O)NC4=O)CC1 [methyl 1-(2-{18-methyl-12,14-dioxo-3,13,18-triazahexacyclo[14.7.0.0^{2,10}.0^{4,9}.0^{11,15}.0^{17,21}]tricosa-1(16),2(10),4(9),5,7,11(15),17(21),19,22-nonaen-5-yl}ethyl)piperidine-4-carboxylate] | – | > 20 | –
